Structures can show the parent of a compound that is named as a salt.
Experiments:
Assay in all cases: cell viability (% survival relative to DMSO control); higher = less cytotoxic
Details in all cases: 72 h
BV-173 = tested on: BV-173
Procedure: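 8x8 drug-combination matrices (0–5000 nM; rosiglitazone and lestaurtinib 0–1000 nM) were run in BV-173 cells for 72 h with CellTiter-Glo read-out. Survival is normalised to DMSO and 10 µM bortezomib and clipped at 100%.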

[1] = tested on: myeloid leukemia patient primary cells Pat.14
Procedure, shortened: (§1)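 Mononuclear cells from patients with AML or CML were thawed, purified on Ficoll and placed in RPMI 1640 with 10% FBS at 10,000 cells/well on 384-well plates. The plates came pre-printed with 70 compounds at five tenfold concentrations spanning 1–10,000 nM, in duplicate, and cells were exposed for 72 h. CellTiter-Glo gave viability, scaled between DMSO wells and wells with 10 μM proteasome inhibitor. Where reported, area under the curve was obtained from log-logistic fits with four parameters using the drc and PharmacoGx R packages.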

[2] = tested on: myeloid leukemia patient primary cells Pat.4
Procedure, shortened: as §1

[3] = tested on: myeloid leukemia patient primary cells Pat.1
Procedure, shortened: as §1

[4] = tested on: myeloid leukemia patient primary cells Pat.8
Procedure, shortened: as §1

[5] = tested on: myeloid leukemia patient primary cells Pat.9
Procedure, shortened: as §1

[6] = tested on: myeloid leukemia patient primary cells Pat.12
Procedure, shortened: as §1

[7] = tested on: myeloid leukemia patient primary cells Pat.3
Procedure, shortened: as §1

[8] = tested on: myeloid leukemia patient primary cells Pat.5
Procedure, shortened: as §1

[9] = tested on: myeloid leukemia patient primary cells Pat.13
Procedure, shortened: as §1

CN(CCOc1ccc(Cc2sc(O)nc2O)cc1)c1ccccn1 [Rosiglitazone] + CC(C)(Cc1ccccc1)NCC(O)c1ccc(O)c(NS(C)(=O)=O)c1 [Zinterol hydrochloride]
cell viability [%], BV-173
Details | drug1 concentration 1 nM | drug1 concentration 5 nM | drug1 concentration 10 nM | drug1 concentration 50 nM | drug1 concentration 100 nM | drug1 concentration 500 nM | drug1 concentration 1000 nM
drug2 concentration 5 nM | > 100 | > 100 | > 100 | > 100 | > 100 | > 100 | > 100
drug2 concentration 10 nM | > 100 | 86.8 | > 100 | > 100 | > 100 | > 100 | > 100
drug2 concentration 50 nM | 98.6 | > 100 | 88.7 | > 100 | 91.5 | > 100 | > 100
drug2 concentration 100 nM | > 100 | > 100 | > 100 | > 100 | > 100 | 97.1 | > 100
drug2 concentration 500 nM | > 100 | > 100 | > 100 | > 100 | > 100 | > 100 | > 100
drug2 concentration 1000 nM | > 100 | 89.5 | > 100 | 94.1 | > 100 | > 100 | > 100
drug2 concentration 5000 nM | 94.8 | > 100 | 90.4 | > 100 | > 100 | 97.6 | > 100

CC(=O)Nc1nc(C)c(-c2ccc(Cl)c(S(=O)(=O)NCCO)c2)s1 [PIK93]
cell viability [%]
Details | [1] | [2] | [3] | [4] | [5] | [6] | [7] | [8] | [9]
1 nM | 72.6 | 97.3 | 83.9 | 86.5 | 68.9 | 94.1 | 46.7 | 57.4 | 91.2
10 nM | 2.07 | 87.1 | 67.2 | 81.9 | 0.773 | 92.3 | 24 | 2.24 | 35.4
100 nM | 52.8 | 72.2 | 62.5 | 87.9 | 23.7 | 95.9 | 70.6 | 1.33 | 61.6
1000 nM | 63.9 | 10.6 | 22.1 | 64.2 | 24.5 | 88.3 | 59.3 | 17 | 54.3
10000 nM | 38.6 | 6.67 | 12.1 | 48.8 | 5.28 | 79 | 15.4 | 1.33 | 14.4

CCn1c(=Cc2cccc[n+]2CC)sc(=C2Sc3ccccc3N2C)c1=O [MKT 077] + CN(C)CCNC(=O)c1cccn2c(=O)c3cc4ccccc4cc3nc12 [Bmh-21]
cell viability [%], BV-173
Details | drug1 concentration 5 nM | drug1 concentration 10 nM | drug1 concentration 50 nM | drug1 concentration 100 nM | drug1 concentration 500 nM | drug1 concentration 1000 nM | drug1 concentration 5000 nM
drug2 concentration 5 nM | 90.2 | > 100 | > 100 | > 100 | 82.7 | > 100 | 93.6
drug2 concentration 10 nM | > 100 | > 100 | > 100 | > 100 | > 100 | > 100 | > 100
drug2 concentration 50 nM | > 100 | > 100 | 86 | 90.4 | 86.5 | > 100 | > 100
drug2 concentration 100 nM | > 100 | 96.7 | 94.6 | > 100 | 90.9 | > 100 | > 100
drug2 concentration 500 nM | 4.65 | 59.5 | 45.4 | 34.8 | 46.4 | 11.4 | 49.9
drug2 concentration 1000 nM | 0.56 | 28.5 | 1.73 | 66.5 | 1.33 | 2.69 | 6.83
drug2 concentration 5000 nM | 0.22 | 1.2 | -0.65 | 0.37 | -0.07 | 0.15 | 6.67

C[C@]12C=CC(=O)C=C1CC[C@@H]1[C@@H]2[C@@H](O)C[C@@]2(C)[C@H]1CC[C@]2(O)C(=O)CO [Prednisolone]
cell viability [%]
Details | [1] | [2] | [3] | [4] | [5] | [6] | [7] | [8] | [9]
1 nM | 85.8 | 95.3 | 83.7 | 86.3 | 99.2 | 89 | 95 | 40.8 | 93.4
10 nM | 46.4 | 78.8 | 69.7 | 70.1 | 18.2 | 88.8 | 71.2 | 10.3 | 82
100 nM | 80.9 | 78.4 | > 100 | 87.3 | 84.8 | 95.7 | 73.9 | 21.7 | 92.6
1000 nM | 94 | 75.8 | > 100 | 59.3 | > 100 | 83.9 | 46 | 72 | > 100
10000 nM | 68.3 | 53.7 | 97.2 | 47.6 | > 100 | 79 | 35.2 | 20.7 | > 100

Cc1[nH]nc(C(F)(F)F)c1Cc1sc2c(c1C(=O)N1C[C@](C)(O)CO1)c(=O)n(C)c(=O)n2C(C)C [AZD3965]
cell viability [%]
Details | [1] | [2] | [3] | [4] | [5] | [6] | [7] | [8] | [9]
1 nM | 84.2 | 87.3 | 93.1 | 86.7 | > 100 | 93.3 | 86.2 | 82.2 | 85.6
10 nM | 39.1 | 98.5 | 89.5 | 74.6 | 34.8 | 94 | 76.4 | 5.69 | 69.2
100 nM | > 100 | 98.1 | 97.5 | 89.9 | > 100 | > 100 | > 100 | 65 | 93.7
1000 nM | 89.9 | > 100 | 95.2 | 92.5 | 74.3 | 99.9 | 92.3 | 55.7 | 97.4
10000 nM | 98.9 | > 100 | 93 | 87.8 | 86.9 | 98.2 | 94.2 | 44.5 | 81.1

CCN(CC)C(=S)SSC(=S)N(CC)CC [Disulfiram]
cell viability [%]
Details | [1] | [2] | [3] | [4] | [5] | [6] | [7] | [8] | [9]
1 nM | 89.1 | 94.9 | 95 | 61.6 | 71.8 | 98 | > 100 | 76.6 | 94.8
10 nM | 93.9 | 90.7 | 82.2 | 76.7 | > 100 | 95.2 | 99.2 | 76.8 | 91
100 nM | 87.8 | 96.1 | 79.8 | 39.6 | 86.3 | 54 | 99.7 | 74.5 | 79.5
1000 nM | 60.5 | 0.934 | 1.11 | 0.473 | 33.6 | 3.19 | 84.6 | 26.1 | < 0
10000 nM | 21.4 | 6.79 | 0.116 | 1.14 | 20.9 | < 0 | 1.56 | 5.84 | 4.12

CN(Cc1cnc2nc(N)nc(N)c2n1)c1ccc(C(=O)N[C@@H](CCC(=O)O)C(=O)O)cc1 [Methotrexate]
cell viability [%]
Details | [1] | [2] | [3] | [4] | [5] | [6] | [7] | [8] | [9]
1 nM | 89 | 88 | 99.6 | 76.5 | 51.4 | > 100 | 46 | 98.7 | 96.4
10 nM | 94.6 | 87.6 | > 100 | 89.1 | 92.2 | 98.1 | 95 | 50.1 | 88.3
100 nM | 87.8 | 70.2 | 87.7 | 96.3 | 25.9 | 97.4 | 40 | 57.6 | 82.7
1000 nM | 22.5 | 73.6 | 72.5 | 70.3 | 6.38 | 87 | 10.9 | < 0 | 58.2
10000 nM | 35.6 | 95.8 | 92.6 | 86.1 | 0.492 | 97.3 | 5.65 | 46.4 | 88.5

Cc1cc2c(C(C)C)c(O)c(O)c(C=O)c2c(O)c1-c1c(C)cc2c(C(C)C)c(O)c(O)c(C=O)c2c1O [Gossypol]
cell viability [%]
Details | [1] | [2] | [3] | [4] | [5] | [6] | [7] | [8] | [9]
1 nM | > 100 | 84.4 | 82.1 | 82.2 | 63.1 | 98.6 | 96.5 | 98.7 | 87.8
10 nM | 42.9 | 90.7 | 92.5 | 89.7 | 7.88 | 94 | 28 | 6.75 | 69.7
100 nM | 69.1 | 77.1 | 92.2 | 89.9 | 22 | 88.1 | 70.6 | 22.8 | 83.6
1000 nM | 0.583 | 81.5 | 78.8 | 84.7 | 6.35 | 99.1 | < 0 | 5.84 | 75.4
10000 nM | 63.3 | 8.19 | 14.3 | 6.5 | 28.7 | 50.5 | 3.08 | 93.9 | 15

O=C(O)CC[N+](=O)[O-] [3-nitropropionic acid] + CCn1c(=Cc2cccc[n+]2CC)sc(=C2Sc3ccccc3N2C)c1=O [MKT 077]
cell viability [%], BV-173
Details | drug1 concentration 5 nM | drug1 concentration 10 nM | drug1 concentration 50 nM | drug1 concentration 100 nM | drug1 concentration 500 nM | drug1 concentration 1000 nM | drug1 concentration 5000 nM
drug2 concentration 5 nM | 83.1 | 78.6 | 88.7 | > 100 | > 100 | 83.5 | 59.7
drug2 concentration 10 nM | 97.8 | > 100 | > 100 | 94.6 | 72.9 | 92.9 | > 100
drug2 concentration 50 nM | 93.3 | > 100 | > 100 | > 100 | > 100 | 99.5 | > 100
drug2 concentration 100 nM | 78.1 | 85.8 | > 100 | 94.3 | > 100 | > 100 | 87.9
drug2 concentration 500 nM | > 100 | 84.2 | 84.2 | 86.4 | > 100 | 76.6 | > 100
drug2 concentration 1000 nM | > 100 | > 100 | > 100 | > 100 | 89.1 | 88.9 | 74.4
drug2 concentration 5000 nM | > 100 | 72 | > 100 | > 100 | > 100 | > 100 | > 100

CC(C)(C)c1ccc(S(=O)(=O)NCc2ccc(C(=O)Nc3cccnc3)cc2)cc1 [STF-31]
cell viability [%]
Details | [1] | [2] | [3] | [4] | [5] | [6] | [7] | [8] | [9]
1 nM | 74.9 | 84.9 | 95.2 | 97.5 | 72.4 | 96.2 | 90.6 | 78.8 | 94.8
10 nM | 62.1 | 83.8 | 82 | 87 | 28.7 | 96.2 | 45.5 | 6.66 | 87.8
100 nM | 9.36 | 18 | > 100 | 63 | 7.17 | 92.7 | 6.65 | 0.912 | 87.7
1000 nM | 1.38 | 1.84 | 31.6 | 6.59 | < 0 | 7.74 | 2.19 | 0.265 | 8.95
10000 nM | < 0 | 1.54 | 16.5 | 9.06 | 0.773 | 4.47 | 1.78 | 2.27 | 9.54
